In patent US20110053883A1, “AGENT THAT MODULATES PHYSIOLOGICAL CONDITION OF PESTS, INVOLVED IN INSECT C-JUN AMINO-TERMINAL KINASE ACTIVITY” (SUMITOMO CHEMICAL COMPANY, LIMITED, priority 2005, published 2011):
Like-named read-outs stand apart in the source and are kept apart here.

Experiments:
Aphis gossypii = experiment: Pesticidal activity test, rearing on artificial feed containing the test compound; assay type: in vivo; details: 144 h, read-out: Determination result of pesticidal activity; for pest or weed control at 50 ppm: test compound in DMSO to a final concentration of 50 ppm
Procedure: A sterilized artificial feed having the following composition (Table 3) was prepared. Then, according to the same manner as that of the method described in Handbook of Insect Rearing Vol. 1 (Elsevier Science Publishers 1985) pp. 35 to pp. 36 except that a test compound dissolved in DMSO to a final concentration of 640 μM was added at 0.5 volume of the artificial feed, and components were mixed, Aphis gossypii was reared. […] Controlling value(%)={1−(Cb×Tai)/(Cai×Tb)}×100 Letters in the equation represent the following meanings. Cb: Number of surviving worms before treatment in non-treated section Cai: Number of surviving worms at observation in non-treated section Tb: Number of surviving worms before treatment in treated section Tai: Number of surviving worms at observation in treated section […]

[1] = biological target: aphid c-Jun NH2-terminal kinase (Aphis gossypii, UniProt A0A9P0JGV4); experiment: In vitro aphid c-Jun NH2-terminal kinase activity measurement (IMAP fluorescence polarization, peptide substrate); assay type: biochemical, cotton aphid (Aphis gossypii); details: for inhibition at 10 µM: test compound at final concentration of 10 μM, relative to DMSO, read-out: Activity of inhibiting c-Jun NH2-terminal kinase activity (inhibition degree (%) at 10 μM addition); for IC50: concentrations 100 μM to 0.03 μM, XLfit, read-out: Activity of inhibiting c-Jun NH2-terminal kinase activity (IC50, (μM))
Chain of aphid c-Jun NH2-terminal kinase (A0A9P0JGV4 entry or part of it): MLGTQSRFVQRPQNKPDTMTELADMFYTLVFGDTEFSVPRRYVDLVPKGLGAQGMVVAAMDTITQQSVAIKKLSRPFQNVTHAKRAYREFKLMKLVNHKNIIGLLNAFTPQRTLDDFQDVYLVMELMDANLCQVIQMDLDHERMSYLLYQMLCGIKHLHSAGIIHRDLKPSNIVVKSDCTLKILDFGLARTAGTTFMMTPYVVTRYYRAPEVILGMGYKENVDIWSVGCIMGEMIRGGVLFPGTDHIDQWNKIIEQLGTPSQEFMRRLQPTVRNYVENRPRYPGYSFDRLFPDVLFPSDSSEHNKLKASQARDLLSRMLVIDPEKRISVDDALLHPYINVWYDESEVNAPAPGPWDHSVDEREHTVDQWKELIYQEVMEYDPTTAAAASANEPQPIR
Procedure: Selection of a compound which modulates the activity of a c-Jun NH2-terminal kinase was performed in a system where the activity of a c-Jun NH2-terminal kinase which is modulated by adding a test compound to an in vitro reaction system using the aphid c-Jun NH2-terminal kinase prepared in Example 7 is measured and evaluated.
Measurement of the activity of the aphid c-Jun NH2-terminal kinase was performed using IMAP screening Express Kit with progressive Binding system (manufactured by Molecular Device) according to a method described in the manual annexed to the system and employing, as a substrate, a peptide comprising the amino acid sequence of SEQ ID NO: 13 to which biotin was added at the amino-terminus, and a peptide comprising the amino acid sequence of SEQ ID NO: 14 in which the carboxyl-terminus was fluorescently labeled.
For measuring the activity, the activity of the aphid c-Jun NH2-terminal kinase was measured when a test compound dissolved in DMSO was contained to a final concentration of 10 μM. In addition, the activity of the aphid c-Jun NH2-terminal kinase was measured when DMSO was contained in place of a test compound. Then, a ratio (%) of a measured value of the activity of the aphid c-Jun NH2-terminal kinase when a test compound dissolved in DMSO was contained, relative to a measured value of the activity of aphid c-Jun NH2-terminal kinase when DMSO was contained in place of the test compound was calculated, and a value obtained by subtracting the calculated value from 100% was adopted as an inhibition degree (%). Results in each test compound are shown in Table 4 in Example 9 together with results of Example 9.
The activity of aphid c-Jun NH2-terminal kinase was measured when a test compound dissolved in DMSO was contained to a final concentration of each concentration of 100 μM, 30 μM, 10 μM, 3 μM, 1 μM, 0.3 μM, 0.1 μM or 0.03 μM. IC50 (μM) was calculated from the result of each concentration at each test compound using a concentration-dependent test analyzing software XL fit (manufactured by idbs). Results are shown in Table 5 in Example 10 together with results of Example 9.

[2] = test compound in DMSO to a final concentration of 640 μM, in artificial feed, surviving Aphis gossypii six days after rearing
[3] = in artificial feed, surviving Aphis gossypii six days after rearing

SMILES	pest or weed control at 640 µM (Aphis gossypii; Aphis gossypii) [%]	inhibition at 10 µM [1] [%]	pest or weed control at 640 µM (Aphis gossypii; [2]) [%]	pest or weed control at 50 ppm (Aphis gossypii; [3]) [%]	IC50 [1] [µM]
CC(C)(C)n1nc(-c2cccc3ccccc23)c2c(N)ncnc21 [4-amino-1-tert-butyl-3-(1-naphthyl) pyrazolo(3,4-d) pyrimidine, reference compound]	> 30	68			
O=C1c2ccccc2-c2n[nH]c3cccc1c23 [Anthra[1,9-CD] pyrazole-6(2H)-one, reference compound]		83	> 30		
O=C1NC(=O)C(c2c[nH]c3ccccc23)=C1c1c[nH]c2ccccc12 [Arcyriarubin A, reference compound]		73	> 30		
O=C1CC2(Oc3ccccc3O2)C(=O)O1 [DB04029]				< 30	> 100
OCC1OC(n2cnc3c(O)ncnc32)C(O)C1O (stereo not shown) [DC05429]				< 30	> 100
Sc1ncnc2nc[nH]c12 [DD08068]				< 30	> 100
COc1ccc(C(=O)c2ccccc2)c(O)c1 [DD08100]				< 30	> 100
CCOC(=O)/C(=C(/F)SCC(C)=O)C(F)(F)F [DF06524]				> 30	47.9
